In brackets after ≈: the same amount, converted by molar mass.
Columns and labels:
[1] = tested on: A. baumannii ATCC BAA-1605; assay: MIC determination; type: cell-based; conditions: Acinetobacter baumannii, ATCCBAA1605
[2] = tested on: S. pyogenes SPY-0253; assay: MIC determination; type: cell-based; conditions: Streptococcus pyogenes, SPY0253
[3] = tested on: S. aureus SAU-0167 (MRSA); assay: MIC determination; type: cell-based; conditions: Staphylococcus aureus
[4] = tested on: S. epidermidis SEP-1024; assay: MIC determination; type: cell-based; conditions: Staphylococcus epidermidis, SEP1024
[5] = tested on: H. influenzae ATCC 49247; assay: MIC determination; type: cell-based; conditions: Haemophilus influenzae, ATCC49247
[6] = tested on: S. aureus SAU-9922 (MRSA); assay: MIC determination; type: cell-based; conditions: Staphylococcus aureus
[7] = tested on: E. faecalis EFA-1299; assay: MIC determination; type: cell-based; conditions: Enterococcus faecalis, EFA1299
[8] = tested on: E. faecium EFA-0221 (VRE); assay: MIC determination; type: cell-based; conditions: Enterococcus faecium
[9] = tested on: S. maltophilia STM-0001; assay: MIC determination; type: cell-based; conditions: Stenotrophomonas maltophilia, STM0001
[10] = tested on: S. pneumoniae SPN-1169; assay: MIC determination; type: cell-based; conditions: Streptococcus pneumoniae, SPN1169
[11] = tested on: P. aeruginosa ATCC 27853; assay: MIC determination; type: cell-based; conditions: Pseudomonas aeruginosa, ATCC27853
[12] = tested on: E. coli ATCC 25922; assay: MIC determination; type: cell-based; conditions: Escherichia coli, ATCC25922
[13] = tested on: E. faecalis ATCC 29212; assay: MIC determination; type: cell-based; conditions: Enterococcus faecalis, ATCC29212
[14] = tested on: M. bovis BCG (Pasteur 1173P2); assay: microbe, parasite or virus in culture; type: cell-based; conditions: Mycobacterium tuberculosis variant bovis BCG, 168 h
[15] = tested on: M. tuberculosis H37Rv ATCC27294; assay: MIC determination (Microplate Alamar Blue Assay); type: cell-based, Mycobacterium tuberculosis; conditions: Mycobacterium tuberculosis, 168 h, M. tuberculosis H37Rv ATCC27294, 7 days; read-out: MIC
[16] = tested on: S. aureus ATCC 29213 (MSSA); assay: MIC determination; type: cell-based; conditions: Staphylococcus aureus
[17] = tested on: A. baumannii ATCC 17978; assay: MIC determination; type: cell-based; conditions: Acinetobacter baumannii, ATCC17978
[18] = tested on: M. abscessus-C28; assay: MIC determination (Microplate Alamar Blue Assay); type: cell-based, Mycobacterium abscessus; conditions: Mycobacteroides abscessus, 72 h
[19] = tested on: S. aureus ATCC 700698 (MRSA); assay: MIC determination; type: cell-based; conditions: Staphylococcus aureus
[20] = tested on: M. smegmatis mc^2155; assay: MIC determination (Microplate Alamar Blue Assay); type: cell-based; conditions: Mycolicibacterium smegmatis; M. smegmatis mc^2155, 72 h
[21] = tested on: M. abscessus-C16; assay: MIC determination (Microplate Alamar Blue Assay); type: cell-based, Mycobacterium abscessus; conditions: Mycobacteroides abscessus; M. abscessus-C16, 72 h
[22] = tested on: K. pneumoniae ATCC BAA-1705; assay: MIC determination; type: cell-based; conditions: Klebsiella pneumoniae, ATCCBAA1705
[23] = tested on: M. abscessus-C58; assay: MIC determination (Microplate Alamar Blue Assay); type: cell-based, Mycobacterium abscessus; conditions: Mycobacteroides abscessus; M. abscessus-C58, 72 h
[24] = tested on: M. abscessus-GDI; assay: MIC determination (Microplate Alamar Blue Assay); type: cell-based, Mycobacterium abscessus; conditions: Mycobacteroides abscessus, 72 h

| SMILES | MIC [1] | MIC [2] | MIC [3] | MIC [4] | MIC [5] | MIC [6] | MIC [7] | MIC [8] | MIC [9] | MIC [10] | further results |
| --- | --- | --- | --- | --- | --- | --- | --- | --- | --- | --- | --- |
| O=C(O)c1cn(C2CC2)c2cc(N3CCNCC3)c(F)cc2c1=O [Ciproflox, Ciprofloxacin] | > 32 µg/mL | 0.25 µg/mL (≈ 0.754 µM) | > 32 µg/mL | 0.25 µg/mL (≈ 0.754 µM) | ≤ 0.031 µg/mL | > 32 µg/mL | 0.25 µg/mL (≈ 0.754 µM) | > 32 µg/mL | 2 µg/mL (≈ 6.04 µM) | 1 µg/mL (≈ 3.02 µM) | – |
| CO[C@H]1/C=C/O[C@@]2(C)Oc3c(C)c(O)c4c(O)c(c(/C=N/N5CCN(C)CC5)c(O)c4c3C2=O)NC(=O)/C(C)=C\C=C\[C@H](C)[C@H](O)[C@@H](C)[C@@H](O)[C@@H](C)[C@H](OC(C)=O)[C@@H]1C [Rifampicin] | 4 µg/mL (≈ 4.86 µM) | 0.063 µg/mL (≈ 0.0766 µM) | ≤ 0.031 µg/mL | ≤ 0.031 µg/mL | 0.25 µg/mL (≈ 0.304 µM) | ≤ 0.031 µg/mL | 1 µg/mL (≈ 1.22 µM) | 4 µg/mL (≈ 4.86 µM) | 16 µg/mL (≈ 19.4 µM) | ≤ 0.031 µg/mL | MIC [11]: > 32 µg/mL; MIC [12]: 8 µg/mL (≈ 9.72 µM); MIC [13]: 2 µg/mL (≈ 2.43 µM); MIC [14]: ≤ 0.031 µg/mL; MIC [15]: 0.031 µg/mL (≈ 0.0377 µM); MIC [16]: 0.0063 µg/mL (≈ 0.00766 µM); MIC [17]: 2 µg/mL (≈ 2.43 µM); MIC [18]: > 20 µg/mL; MIC [19]: ≤ 0.031 µg/mL; MIC [20]: 13.3 µg/mL (≈ 16.1 µM); MIC [21]: > 20 µg/mL; MIC [22]: > 32 µg/mL; MIC [23]: > 20 µg/mL; MIC [24]: > 20 µg/mL |
